≈ marks a conversion by molar mass, not a printed value. Where “and” joins values, the source holds several entries; their conditions need not be identical. Equal entries are not always repeated. Where two headings read alike, the source gives them in different places.
What was measured:
Vero cells = experiment: Cytotoxicity, MTT cell viability assay; type: cell-based; details: Vero cells, 24 h, MTT
MRSA ATCC BAA-1762 = experiment: MIC by broth microdilution; type: cell-based, Staphylococcus aureus
[1] = test system: Mycobacterium tuberculosis; details: M. tuberculosis; cited from earlier work
M. tuberculosis LeuRS = details: read-out: M. tuberculosis LeuRS IC50; cited from earlier work
Escherichia coli LeuRS = details: read-out: IC50 (E. coli LeuRS); binds to the editing site; cited from earlier work
Gram-negative pathogens = details: cited from earlier work
[2] = test system: MRSA (ATCC BAA-1762) resistant mutants; details: for MIC shift: vs wild-type MRSA
saLeuRS = details: read-out: IC50 (LeuRS); previously reported; ref 25 (Xia et al.); cited from earlier work
S. aureus = details: previously reported; cited from earlier work
MRSA (ATCC BAA-1762) [3] = experiment: Post-antibiotic effect; details: 1 h exposure
[4] = test system: MRSA (ATCC BAA-1762) resistant mutants; experiment: microbe, parasite or virus in culture; details: Staphylococcus aureus, ATCCBAA1762|MRSA, read-out: MIC of resistant colonies
[5] = Cytotoxicity, MTT cell viability assay; type: cell-based; details: monkey, vero cells
MRSA (ATCC BAA-1762) [6] = experiment: Time-kill experiments
[7] = target: T1, S. aureus LeuRS (saLeuRS) (Staphylococcus aureus, UniProt Q2FXH2); experiment: radiolabeled LeuRS aminoacylation assay; type: biochemical
T1 sequence (Q2FXH2 1-805): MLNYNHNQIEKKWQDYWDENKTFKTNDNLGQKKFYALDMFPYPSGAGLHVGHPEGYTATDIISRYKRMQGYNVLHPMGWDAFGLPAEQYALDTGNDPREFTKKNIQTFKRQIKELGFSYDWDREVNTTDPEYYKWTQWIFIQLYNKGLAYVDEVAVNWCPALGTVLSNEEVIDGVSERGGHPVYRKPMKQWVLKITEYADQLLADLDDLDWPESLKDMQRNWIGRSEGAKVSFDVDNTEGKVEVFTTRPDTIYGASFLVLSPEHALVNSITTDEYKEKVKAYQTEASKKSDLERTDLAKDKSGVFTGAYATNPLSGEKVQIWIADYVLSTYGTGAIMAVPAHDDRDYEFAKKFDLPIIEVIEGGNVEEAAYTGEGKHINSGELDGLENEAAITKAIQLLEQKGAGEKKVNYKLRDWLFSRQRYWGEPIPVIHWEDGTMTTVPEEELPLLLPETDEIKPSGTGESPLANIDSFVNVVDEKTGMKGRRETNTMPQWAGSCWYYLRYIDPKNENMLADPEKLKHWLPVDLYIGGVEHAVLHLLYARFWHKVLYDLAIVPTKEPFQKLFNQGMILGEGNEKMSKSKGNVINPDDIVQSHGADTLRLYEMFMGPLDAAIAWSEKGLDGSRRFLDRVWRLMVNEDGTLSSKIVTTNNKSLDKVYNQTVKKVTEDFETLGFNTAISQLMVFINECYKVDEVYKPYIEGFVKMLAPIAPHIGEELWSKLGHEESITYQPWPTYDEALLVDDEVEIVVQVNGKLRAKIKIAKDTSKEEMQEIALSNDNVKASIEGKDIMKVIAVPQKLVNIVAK

For `Nc1ccc(S(=O)(=O)Nc2ccc3c(c2)B(O)OC3)cc1` [PT662], the “Cytotoxicity Vero cells (IC50)” value (Vero cells) was ≥100 µg/mL, the “fold increase in MIC relative to PT638” value (MRSA ATCC BAA-1762; MRSA ATCC BAA-1762) was 8 fold and the “MIC MRSA” value (MRSA ATCC BAA-1762; MRSA ATCC BAA-1762, broth microdilution) was 3.1 µg/mL and 3.125 µg/mL.
In the case of `CCOc1ccc(Cl)c2c1B(O)OC2CN` (centres unmarked) [AN6426], the MIC [1] is listed as 0.13 µM (≈ 0.0314 µg/mL) and the IC50 (M. tuberculosis LeuRS) is listed as 90 nM.
For `NC[C@H]1OB(O)c2c(OCCCO)cccc21` [AN3365], the IC50 (Escherichia coli LeuRS) is listed as 310 nM and the MIC (Gram-negative pathogens) is listed as 0.5 to 4 µg/mL.
With `O=[N+]([O-])c1ccc(S(=O)(=O)Nc2ccc3c(c2)B(O)OC3)cc1` [PT638] the MIC shift ([2]; mutant strain 1, D343Y saLeuRS) was 16-fold, the MIC shift ([2]; mutant strain 2, G303S saLeuRS) was 8-fold and the MIC shift ([2]; mutant strain 3, F233I saLeuRS) was 8-fold. For the same molecule, the “MIC of resistant colonies relative to parent strain” value ([2]; three colonies picked) was “at least 8 times”, the IC50 (saLeuRS) was > 200000 nM and the “MIC against S. aureus” value (S. aureus) was < 0.2 µg/mL. The “duration of the post-antibiotic effect” value (MRSA (ATCC BAA-1762) [3]; 0.25 × MIC) was 0.2 h, the “duration of the post-antibiotic effect” value (MRSA (ATCC BAA-1762) [3]; 4 × MIC) was 1.5 h and the MIC [4] was ≥ 3.12 µg/mL. The CC50 at 24 h [5] was ≥ 100 µg/mL, the “reduction in cell numbers over 8 h” value (MRSA (ATCC BAA-1762) [6]; 1 times the MIC) was 1.8 log10 cfu/mL and the “reduction in cell numbers over 8 h” value (MRSA (ATCC BAA-1762) [6]; 4 times the MIC) was 2.2 log10 cfu/mL. The “reduction in cell numbers over 8 h” value (MRSA (ATCC BAA-1762) [6]; 16 times the MIC) was 2.7 log10 cfu/mL, the “type of antibacterial activity in time-kill” value (MRSA (ATCC BAA-1762) [6]; over the course of 8 h) was “bacteriostatic” and the IC50 [7] was > 100000 nM. For the same molecule, the “IC50 (saLeuRS aminoacylation)” value ([7]; 7 nM saLeuRS, 20 min pre-incubation, triplicate) was “did not inhibit saLeuRS”.
